Measured values taken from patent US20260137703A1, “2-AMINO-PYRIDO[2,3-D]PYRIMIDIN-7(8H)-ONE AND 7-AMINO-1-PYRIMIDO[4,5-D]PYRIMIDIN-2(1 H)-ONE DERIVATIVES AS EGFR INHIBITORS FOR THE TREATMENT OF CANCER” (Cancer Research Technology Limited, priority 2022, published 2026).

Tests used:
[1] = molecular target: T1, Phospho-EGFR (Tyr1068) in H1975 C797S cells (CRISPR-edited EGFR C797S) (Homo sapiens, UniProt P00533, C797S/L858R/T790M); assay: HTRF pEGFR/total EGFR in H1975 C797S cells; type: cell-based; settings: ratio pEGFR/total EGFR, compound 3 hours
T1 construct: host or cells: H1975 C797S (CRISPR-edited)
T1 sequence (P00533 25-1210 T790M/C797S/L858R): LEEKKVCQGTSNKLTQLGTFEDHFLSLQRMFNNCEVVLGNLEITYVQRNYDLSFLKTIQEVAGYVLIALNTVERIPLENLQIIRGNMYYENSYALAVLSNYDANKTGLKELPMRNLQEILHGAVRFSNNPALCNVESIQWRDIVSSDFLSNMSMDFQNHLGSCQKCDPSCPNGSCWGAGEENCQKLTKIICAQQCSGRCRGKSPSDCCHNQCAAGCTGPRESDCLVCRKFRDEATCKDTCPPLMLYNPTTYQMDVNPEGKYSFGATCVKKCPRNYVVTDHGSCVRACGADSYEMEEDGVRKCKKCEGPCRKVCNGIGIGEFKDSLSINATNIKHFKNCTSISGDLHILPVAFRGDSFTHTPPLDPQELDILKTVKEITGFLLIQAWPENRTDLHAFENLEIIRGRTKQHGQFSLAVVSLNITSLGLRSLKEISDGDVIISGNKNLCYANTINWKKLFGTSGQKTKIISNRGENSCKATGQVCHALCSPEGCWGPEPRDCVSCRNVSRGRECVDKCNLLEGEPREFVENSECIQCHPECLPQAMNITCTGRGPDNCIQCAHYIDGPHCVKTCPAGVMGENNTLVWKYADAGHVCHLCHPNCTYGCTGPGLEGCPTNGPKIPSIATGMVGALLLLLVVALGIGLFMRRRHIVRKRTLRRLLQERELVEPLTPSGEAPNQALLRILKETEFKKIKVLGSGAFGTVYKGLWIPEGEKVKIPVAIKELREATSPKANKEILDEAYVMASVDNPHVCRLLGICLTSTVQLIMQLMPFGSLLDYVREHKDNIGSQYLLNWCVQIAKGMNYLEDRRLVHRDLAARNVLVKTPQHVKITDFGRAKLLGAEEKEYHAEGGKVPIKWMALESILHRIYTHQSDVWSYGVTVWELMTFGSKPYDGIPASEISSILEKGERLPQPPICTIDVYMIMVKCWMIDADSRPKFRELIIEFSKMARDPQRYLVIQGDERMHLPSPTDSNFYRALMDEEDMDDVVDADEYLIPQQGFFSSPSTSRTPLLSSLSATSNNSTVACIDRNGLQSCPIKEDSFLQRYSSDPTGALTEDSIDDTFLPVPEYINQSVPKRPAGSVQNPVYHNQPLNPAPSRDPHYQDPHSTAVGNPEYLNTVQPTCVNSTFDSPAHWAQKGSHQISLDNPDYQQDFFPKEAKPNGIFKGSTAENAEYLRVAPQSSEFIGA
Description: […]. Once adhered (after 24 h) cells were treated with compounds dissolved in DMSO at a final concentration of 0.1% DMSO in media. Compounds were diluted in media then added to cells for 3 hours in duplicate. Compound and media were removed from the cells, then 50 ul of HTRF lysis buffer was added (lysis buffer was diluted from 4× stock to 1× in DI water, with 1% blocking agent also added). Cells were lysed on a plate shaker (2000 rpm) for 30 minutes at room temperature. pEGFR expression was monitored using the Cisbio Phospho-EGFR (Tyr1068) cellular kit (64EG1PEH). Total EGFR expression was monitored using the Cisbio Total EGFR cellular kit (64NG1PEH) as per manufacturer's instructions. Fluorescence emission was read at two different wavelengths (665 nm and 620 nm) on a PheraStar. Results were calculated as ratio of pEGFR/total EGFR and then percentage of 0 μM control.

[2] = molecular target: T2, Phospho-EGFR (Tyr1068) in H1975 cells (Homo sapiens, UniProt P00533, L858R/T790M); assay: HTRF pEGFR/total EGFR in H1975 cells; type: cell-based; settings: ratio pEGFR/total EGFR, compound 3 hours
T2 construct: host or cells: H1975
T2 sequence (P00533 25-1210 T790M/L858R): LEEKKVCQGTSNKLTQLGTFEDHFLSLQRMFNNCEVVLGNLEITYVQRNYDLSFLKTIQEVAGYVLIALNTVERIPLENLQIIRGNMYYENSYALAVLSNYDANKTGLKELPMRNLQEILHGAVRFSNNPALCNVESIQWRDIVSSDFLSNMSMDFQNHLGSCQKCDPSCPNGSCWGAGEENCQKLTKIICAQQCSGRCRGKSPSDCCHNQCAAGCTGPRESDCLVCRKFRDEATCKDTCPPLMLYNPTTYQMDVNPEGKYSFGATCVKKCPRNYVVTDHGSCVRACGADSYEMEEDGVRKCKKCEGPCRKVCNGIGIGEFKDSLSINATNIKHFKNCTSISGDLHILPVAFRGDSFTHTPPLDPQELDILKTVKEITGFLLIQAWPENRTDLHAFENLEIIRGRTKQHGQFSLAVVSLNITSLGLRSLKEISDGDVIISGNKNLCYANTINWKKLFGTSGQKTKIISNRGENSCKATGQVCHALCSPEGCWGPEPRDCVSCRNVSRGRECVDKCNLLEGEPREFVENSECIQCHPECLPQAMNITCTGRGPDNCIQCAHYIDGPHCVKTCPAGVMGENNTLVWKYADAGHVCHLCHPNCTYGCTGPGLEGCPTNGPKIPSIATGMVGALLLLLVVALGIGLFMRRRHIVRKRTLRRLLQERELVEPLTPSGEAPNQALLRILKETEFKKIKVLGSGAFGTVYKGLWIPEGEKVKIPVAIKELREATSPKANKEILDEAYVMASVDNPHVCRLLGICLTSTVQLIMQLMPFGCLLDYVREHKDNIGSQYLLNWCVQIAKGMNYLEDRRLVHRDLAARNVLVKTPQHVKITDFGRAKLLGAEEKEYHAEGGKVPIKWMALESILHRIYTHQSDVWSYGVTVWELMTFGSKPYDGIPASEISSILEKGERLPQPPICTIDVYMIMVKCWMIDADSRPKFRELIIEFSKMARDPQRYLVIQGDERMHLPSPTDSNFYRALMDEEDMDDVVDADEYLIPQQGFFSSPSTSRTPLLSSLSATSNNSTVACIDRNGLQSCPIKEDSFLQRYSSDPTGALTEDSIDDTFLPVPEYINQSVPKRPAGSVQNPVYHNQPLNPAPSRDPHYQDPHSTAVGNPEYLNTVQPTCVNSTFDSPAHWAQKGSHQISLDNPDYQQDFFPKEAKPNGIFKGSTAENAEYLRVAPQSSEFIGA
Description: H1975 cells (ATCC CRL-5908) were plated at 20,000 cells per well in 96 well plates and placed at 37° C. 5% CO2. Once adhered (after 24 h) cells were treated with compounds dissolved in DMSO at a final concentration of 0.1% DMSO in media. Compounds were diluted in media then added to cells for 3 hours in duplicate. Compound and media were removed from the cells, then 50 ul of HTRF lysis buffer is added (lysis buffer was diluted from 4× stock to 1× in DI water, with 1% blocking agent also added). Cells were lysed on a plate shaker (2000 rpm) for 30 minutes at room temperature. pEGFR expression was monitored using the Cisbio Phospho-EGFR (Tyri068) cellular kit (64EG1PEH). Total EGFR expression was monitored using the Cisbio Total EGFR cellular kit (64NG1PEH) as per manufacturer's instructions. Fluorescence emission was read at two different wavelengths (665 nm and 620 nm) on a PheraStar. Results were calculated as ratio of pEGFR/total EGFR and then percentage of 0 μM control.

[3] = molecular target: T3, Phospho-EGFR (Tyr1068) in A431 cells (Homo sapiens, UniProt P00533); assay: HTRF pEGFR/total EGFR in A431 cells with EGF stimulation; type: cell-based; settings: ratio pEGFR/total EGFR, compound 2.5 hours then 100 ng/ml EGF 30 mins
T3 construct: endogenous in cells; host or cells: A431
T3 sequence (P00533 25-1210): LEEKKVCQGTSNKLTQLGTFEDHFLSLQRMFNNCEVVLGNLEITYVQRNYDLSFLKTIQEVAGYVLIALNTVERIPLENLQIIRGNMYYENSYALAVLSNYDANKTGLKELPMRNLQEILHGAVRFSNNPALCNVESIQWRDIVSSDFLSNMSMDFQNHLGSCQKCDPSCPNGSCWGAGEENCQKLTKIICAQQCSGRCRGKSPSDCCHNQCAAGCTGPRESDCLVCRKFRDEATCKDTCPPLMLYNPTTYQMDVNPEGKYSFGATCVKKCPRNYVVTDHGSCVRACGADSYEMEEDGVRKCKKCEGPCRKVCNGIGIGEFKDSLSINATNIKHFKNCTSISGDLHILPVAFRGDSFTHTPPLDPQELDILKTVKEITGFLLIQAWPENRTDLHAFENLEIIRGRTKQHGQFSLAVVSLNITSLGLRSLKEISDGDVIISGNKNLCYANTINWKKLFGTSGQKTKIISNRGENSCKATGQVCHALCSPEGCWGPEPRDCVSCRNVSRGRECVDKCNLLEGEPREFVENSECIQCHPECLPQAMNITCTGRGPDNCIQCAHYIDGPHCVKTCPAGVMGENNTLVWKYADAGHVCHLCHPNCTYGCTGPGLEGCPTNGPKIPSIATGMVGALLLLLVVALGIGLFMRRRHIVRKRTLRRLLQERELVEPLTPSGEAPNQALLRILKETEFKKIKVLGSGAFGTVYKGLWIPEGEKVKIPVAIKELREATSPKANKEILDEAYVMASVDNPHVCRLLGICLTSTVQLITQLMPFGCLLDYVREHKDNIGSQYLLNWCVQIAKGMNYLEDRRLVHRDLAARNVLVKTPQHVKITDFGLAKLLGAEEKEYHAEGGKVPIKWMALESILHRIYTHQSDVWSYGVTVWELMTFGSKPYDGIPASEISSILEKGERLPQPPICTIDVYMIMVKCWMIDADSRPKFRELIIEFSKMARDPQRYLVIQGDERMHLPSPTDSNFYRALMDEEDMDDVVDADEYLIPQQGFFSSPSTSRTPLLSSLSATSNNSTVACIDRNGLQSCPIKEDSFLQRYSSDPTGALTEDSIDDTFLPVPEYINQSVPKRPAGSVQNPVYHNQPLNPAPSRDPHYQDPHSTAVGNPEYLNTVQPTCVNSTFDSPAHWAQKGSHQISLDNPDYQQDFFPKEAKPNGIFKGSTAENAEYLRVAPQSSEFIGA
Description: Cells were plated at 20,000 cells per well in 96 well plates and placed at 37° C. 5% CO2. Once adhered (after 24 h) cells were treated with compounds dissolved in DMSO at a final concentration of 0.1% DMSO in media. Compounds were diluted in media then added to cells for 2.5 hours in duplicate, 100 ng/ml EGF (ThermoFisher, PHG0311) was added to all compound treated cells as well as a control for 30 mins. Compound and media were removed from the cells, then 50 ul of HTRF lysis buffer was added (lysis buffer was diluted from 4× stock to 1× in DI water, with 1% blocking agent also added). Cells were lysed on a plate shaker (2000 rpm) for 30 minutes at room temperature. pEGFR expression was monitored using the Cisbio Phospho-EGFR (Tyr1068) cellular kit (64EG1PEH). Total EGFR expression was monitored using the Cisbio Total EGFR cellular kit (64NG1PEH) as per manufacturer's instructions. Fluorescence emission was read at two different wavelengths (665 nm and 620 nm) on a PheraStar. Results were calculated as ratio of pEGFR/total EGFR and then percentage of 0 μM control.

[4] = molecular target: CtermHisTag-mEGFR Wild type (Homo sapiens, UniProt P00533); assay: biochemical
Sequence of CtermHisTag-mEGFR Wild type (P00533 whole entry): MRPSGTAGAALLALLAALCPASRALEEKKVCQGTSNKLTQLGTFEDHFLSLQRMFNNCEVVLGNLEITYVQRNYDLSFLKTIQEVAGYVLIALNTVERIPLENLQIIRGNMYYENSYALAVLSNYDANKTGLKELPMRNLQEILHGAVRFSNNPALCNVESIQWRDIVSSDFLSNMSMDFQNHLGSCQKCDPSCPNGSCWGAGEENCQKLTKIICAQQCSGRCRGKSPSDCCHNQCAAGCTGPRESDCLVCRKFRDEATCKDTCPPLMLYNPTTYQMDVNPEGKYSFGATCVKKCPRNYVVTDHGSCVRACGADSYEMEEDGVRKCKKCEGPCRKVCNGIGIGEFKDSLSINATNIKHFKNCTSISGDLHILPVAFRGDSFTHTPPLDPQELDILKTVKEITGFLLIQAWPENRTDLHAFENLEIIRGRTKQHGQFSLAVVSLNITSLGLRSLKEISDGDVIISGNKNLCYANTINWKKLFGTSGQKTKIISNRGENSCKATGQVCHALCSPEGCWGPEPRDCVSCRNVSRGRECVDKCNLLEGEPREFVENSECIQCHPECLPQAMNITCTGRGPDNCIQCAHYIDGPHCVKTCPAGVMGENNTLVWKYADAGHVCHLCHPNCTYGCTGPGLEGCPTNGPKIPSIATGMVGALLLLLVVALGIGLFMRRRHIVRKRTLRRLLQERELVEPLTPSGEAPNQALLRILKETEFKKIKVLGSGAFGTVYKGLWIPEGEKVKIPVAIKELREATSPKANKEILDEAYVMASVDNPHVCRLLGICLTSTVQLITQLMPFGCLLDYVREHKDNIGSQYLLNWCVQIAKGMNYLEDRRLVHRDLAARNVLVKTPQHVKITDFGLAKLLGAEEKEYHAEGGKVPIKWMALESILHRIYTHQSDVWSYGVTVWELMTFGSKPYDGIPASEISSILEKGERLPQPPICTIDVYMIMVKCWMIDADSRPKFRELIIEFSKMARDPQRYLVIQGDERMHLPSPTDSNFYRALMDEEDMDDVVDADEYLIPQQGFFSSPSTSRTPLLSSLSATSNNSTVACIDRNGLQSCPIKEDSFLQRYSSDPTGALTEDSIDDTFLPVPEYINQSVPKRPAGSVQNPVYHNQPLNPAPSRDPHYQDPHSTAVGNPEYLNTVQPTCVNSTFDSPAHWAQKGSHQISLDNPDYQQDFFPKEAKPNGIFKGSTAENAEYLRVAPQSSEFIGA

IC50 [1] | IC50 [2] | IC50 [3] | IC50 [4] | SMILES
< 500 nM | < 500 nM | 1000 to 3000 nM | < 1000 nM | C#Cc1cc(=O)n(-c2ccccc2)c2nc(Nc3ccc(N4CCOCC4)cc3)ncc12 [Example 6, 5-Ethynyl-2-((4-morpholinophenyl)amino)-8-phenylpyrido[2,3-d]pyrimidin-7(8H)-one]
1000 to 3000 nM | 1000 to 3000 nM | > 3000 nM | 1000 to 10000 nM | C#Cc1cc(=O)n(-c2ccccc2)c2nc(Nc3ccc(N(C)C(=O)CN(C)C)cc3OC)ncc12 [Example 7, 2-(Dimethylamino)-N-(4-((5-ethynyl-7-oxo-8-phenyl-7,8-dihydropyrido[2,3-d]pyrimidin-2-yl)amino)-3-methoxyphenyl)-N-methylacetamide]
< 500 nM | < 500 nM | > 3000 nM | < 1000 nM | C#Cc1cc(=O)n(-c2ccccc2)c2nc(Nc3ccc(N(C)CCCN(C)C)cc3)ncc12 [Example 9, 2-((4-((3-(Dimethylamino)propyl)(methyl)amino)phenyl)amino)-5-ethynyl-8-phenylpyrido[2,3-d]pyrimidin-7(8H)-one]
< 500 nM | < 500 nM | > 3000 nM | < 1000 nM | C#Cc1cc(=O)n(-c2ccccc2)c2nc(Nc3ccc(N4CCNCC4)cc3)ncc12 [Example 14, 5-Ethynyl-8-phenyl-2-{[4-(piperazin-1-yl)phenyl]amino}pyrido[2,3-d]pyrimidin-7-one]
< 500 nM | < 500 nM | > 3000 nM | < 1000 nM | C#Cc1cc(=O)n(-c2ccccc2)c2nc(Nc3ccc(N4CCN(CC)CC4)cc3)ncc12 [Example 15, 2-{[4-(4-Ethylpiperazin-1-yl)phenyl]amino}-5-ethynyl-8-phenylpyrido[2,3-d]pyrimidin-7-one]
 |  |  | > 10000 nM | C=Cc1c(-c2ccccc2Cl)c(=O)n(C)c2nc(Nc3cccc(OC)c3)ncc12 [Example 168, 6-(2-chlorophenyl)-5-ethenyl-2-[(3-methoxyphenyl)amino]-8-methylpyrido[2,3-d]pyrimidin-7-one]
< 500 nM | < 500 nM |  | < 1000 nM | C#Cc1cc(=O)n2c3nc(ncc13)Nc1ccc(N3CCN(C)CC3)c(c1)OC[C@@H]1CC[C@@H](C1)C2 [Example 233, (5^1S,5^3R)-3^5-Ethynyl-1^4-(4-methylpiperazin-1-yl)-3^7,3^8-dihydro-7-oxa-2-aza-3(2,8)-pyrido[2,3-d]pyrimidina-1(1,3)-benzena-5(1,3)-cyclopentanacycloheptaphan-3^7-one]

Further lines, the molecule ahead of its results:

SMILES | IC50 [1] | IC50 [2] | IC50 [3] | IC50 [4]
C#Cc1cc(=O)n(-c2ccccc2)c2cc(Nc3ccccc3OC)ncc12 [Example 3, 4-Ethynyl-7-[(2-methoxyphenyl)amino]-1-phenyl-1,6-naphthyridin-2-one] | > 3000 nM | > 3000 nM | > 3000 nM | > 10000 nM
C#Cc1cc(=O)n(-c2ccccc2)c2nc(NC3CCN(S(C)(=O)=O)CC3)ncc12 [Example 10, 5-Ethynyl-2-((1-(methylsulfonyl)piperidin-4-yl)amino)-8-phenylpyrido[2,3-d]pyrimidin-7(8H)-one] | > 3000 nM | > 3000 nM | > 3000 nM | < 1000 nM
C#Cc1cc(=O)n(-c2ccccc2)c2nc(Nc3ccc(N4CCN(C)CC4)c(C)c3)ncc12 [Example 12, 5-Ethynyl-2-{[3-methyl-4-(4-methylpiperazin-1-yl)phenyl]amino}-8-phenylpyrido[2,3-d]pyrimidin-7-one] | < 500 nM | < 500 nM | > 3000 nM | < 1000 nM
C#Cc1cc(=O)n(-c2ccccc2)c2nc(Nc3ccc(N4CCN(C(C)C)CC4)cc3)ncc12 [Example 16, 5-Ethynyl-2-{[4-(4-isopropylpiperazin-1-yl)phenyl]amino}-8-phenylpyrido[2,3-d]pyrimidin-7-one] | < 500 nM | < 500 nM | 1000 to 3000 nM | < 1000 nM
C#Cc1cc(=O)n(-c2ccccc2)c2nc(Nc3ccc(N4CCN(CCO)CC4)cc3)ncc12 [Example 17, 5-ethynyl-2-({4-[4-(2-hydroxyethyl)piperazin-1-yl]phenyl}amino)-8-phenylpyrido[2,3-d]pyrimidin-7-one] | < 500 nM | < 500 nM | 1000 to 3000 nM | < 1000 nM
C#Cc1cc(=O)n(-c2ccccc2)c2nc(Nc3ccc(N4CCN(C5COC5)CC4)cc3)ncc12 [Example 18, 5-Ethynyl-2-({4-[4-(oxetan-3-yl)piperazin-1-yl]phenyl}amino)-8-phenylpyrido[2,3-d]pyrimidin-7-one] | < 500 nM | < 500 nM | 1000 to 3000 nM | < 1000 nM
C#Cc1c(-c2c(Cl)cccc2Cl)c(=O)n(C)c2nc(Nc3cccc(CO)c3)ncc12 [Example 125, 6-(2,6-dichlorophenyl)-5-ethynyl-2-{[3-(hydroxymethyl)phenyl]amino}-8-methylpyrido[2,3-d]pyrimidin-7-one] | > 3000 nM | > 3000 nM | > 3000 nM | 
C=Cc1c(-c2c(Cl)cccc2Cl)c(=O)n(C)c2nc(Nc3cccc(CO)c3)ncc12 [Example 164, 6-(2,6-dichlorophenyl)-5-ethenyl-2-{[3-(hydroxymethyl)phenyl]amino}-8-methylpyrido[2,3-d]pyrimidin-7-one] |  |  |  | > 10000 nM
C=Cc1c(-c2ccccc2Cl)c(=O)n(C)c2nc(Nc3ccc(N(C)CCN(C)C)cc3)ncc12 [Example 165, 6-(2-chlorophenyl)-2-[(4-{[2-(dimethylamino)ethyl](methyl)amino}phenyl)amino]-5-ethenyl-8-methylpyrido[2,3-d]pyrimidin-7-one] |  |  |  | > 10000 nM
C=Cc1c(Cc2ccccc2)c(=O)n(C)c2nc(Nc3ccc(N(C)CCN(C)C)cc3)ncc12 [Example 166, 6-benzyl-2-[(4-{[2-(dimethylamino)ethyl](methyl)amino}phenyl)amino]-5-ethenyl-8-methylpyrido[2,3-d]pyrimidin-7-one] |  |  |  | > 10000 nM
C=Cc1c(-c2c(Cl)cccc2Cl)c(=O)n(C)c2nc(Nc3ccc(N(C)CCN(C)C)cc3)ncc12 [Example 167, 6-(2,6-dichlorophenyl)-2-[(4-{[2-(dimethylamino)ethyl](methyl)amino}phenyl)amino]-5-ethenyl-8-methylpyrido[2,3-d]pyrimidin-7-one] |  |  |  | > 10000 nM
C=Cc1c(-c2ccccc2Cl)c(=O)n(C)c2nc(Nc3cccc(CO)c3)ncc12 [Example 169, 6-(2-chlorophenyl)-5-ethenyl-2-{[3-(hydroxymethyl)phenyl]amino}-8-methylpyrido[2,3-]pyrimidin-7-one] |  |  |  | 1000 to 10000 nM
C=Cc1c(-c2ccccc2Cl)c(=O)n(C)c2nc(N)ncc12 [Example 173, 2-amino-6-(2-chlorophenyl)-5-ethenyl-8-methylpyrido[2,3-d]pyrimidin-7-one] |  |  |  | > 10000 nM
C=Cc1c(-c2ccccc2Cl)c(=O)n(C)c2nc(NCCCCN3CCN(C)CC3)ncc12 [Example 174, 6-(2-chlorophenyl)-8-methyl-2-((4-(4-methylpiperazin-1-yl)butyl)amino)-5-vinylpyrido[2,3-d]pyrimidin-7(8H)-one] |  |  |  | > 10000 nM
C#Cc1cc(=O)n(C2CCCC2)c2nc(Nc3ccccc3N3CCCC(CS(C)(=O)=O)C3)ncc12 (stereo not shown) [Example 202, 8-Cyclopentyl-5-ethynyl-2-({2-[3-(methanesulfonylmethyl)piperidin-1-yl]phenyl}amino)pyrido[2,3-d]pyrimidin-7-one] | > 3000 nM | > 3000 nM |  | > 10000 nM
C#Cc1cc(=O)n(C2CCCC2)c2nc(Nc3cccc(N(C)[C@H]4CC[C@@H](CS(C)(=O)=O)CC4)c3)ncc12 [Example 204] | > 3000 nM | > 3000 nM |  | < 1000 nM
